Biological target: T1, MRGPRX2 (Homo sapiens, UniProt Q96LB1)
T1 sequence (Q96LB1 1-330): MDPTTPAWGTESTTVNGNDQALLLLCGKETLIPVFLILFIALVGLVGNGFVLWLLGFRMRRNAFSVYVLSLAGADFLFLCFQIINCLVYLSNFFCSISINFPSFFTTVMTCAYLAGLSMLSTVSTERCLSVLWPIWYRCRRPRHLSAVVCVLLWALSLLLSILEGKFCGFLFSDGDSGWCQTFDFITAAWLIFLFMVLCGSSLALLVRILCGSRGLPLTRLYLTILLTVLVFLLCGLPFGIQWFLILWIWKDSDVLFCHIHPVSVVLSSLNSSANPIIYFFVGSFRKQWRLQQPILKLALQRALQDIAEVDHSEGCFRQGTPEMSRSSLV
Assay: MRGPRX2 β-Arrestin recruitment assay (PathHunter CHO-K1)
Assay type: cell-based
Parameters: host or cells: PathHunter CHO-K1
Conditions: PathHunter CHO-K1 cells, agonist Cortistatin 14 0.25 μM
Excerpt: Example C: MRGPRX2 β-Arrestin Assay
This assay measures compound inhibition of β-Arrestin recruitment, which is part of the G protein-independent pathway that results from the ligand-activated GPCR phosphorylation by specific GPCR kinases. The PathHunter CHO-K1 MRPGRX2 B-Arrestin Cell line stably expressing ProLink tagged MRGPRX2 and Enzyme Acceptor Tagged B-Arrestin was purchased from Eurofins DiscoverX, (Fremont, CA).
The cells were maintained in culture medium from the Europhins DiscoverX Cell Culture Kit-107 which includes FBS, hygromycin B and G418. For the assay, the cells were harvested and were resuspended with Cell Plating Reagent 2 (Eurofins DiscoverX). Cells were added 10000 cells in 25 μL/well to a 384-well black cell culture plate (Greiner VWR, Radnor, PA) which contained 125 nL/well of compound at a selected serially diluted concentration range or DMSO. The plate was incubated at 37° C. with 5% CO2 for 1 h. 2 μL/well of agonist Cortistatin 14 was diluted in Protein Dilution Buffer, (Eurofins DiscoverX) for a final concentration of 0.25 μM, was added and the plate was incubated at 37° C. with 5% CO2 for 90 min. 14 μL/well of Detection Reagent Mix (PathHunter Detection Kit, Eurofins DiscoverX) was added to the plates and further incubated for 1 h in the dark. Plates were read on the PHERAstar microplate reader (BMG Labtech Cary, NC) measuring luminescence 0.1 to 1 s per well. Data was normalized using DMSO only wells and wells with high concentration of reference antagonist as controls. Compound IC50 curves were globally fitted with 3- or 4-parameter Hill equation in a Genedata Screener (Genedata Basel, Switzerland).

IC50, 0.1 to 100 nM:
OC1CCC12CN(C(CNc1cc(C(F)(F)F)nc3cc(C(F)(F)F)nn13)c1ccc(F)cc1)C2 (mixture of isomers) [Example 34, 2-(2-((2,5-Bis(trifluoromethyl)pyrazolo[1,5-a]pyrimidin-7-yl)amino)-1-(4-fluorophenyl)ethyl)-2-azaspiro[3.3]heptan-5-ol]
Fc1ccc(C(CNc2cc(C(F)(F)F)nc3cc(C(F)(F)F)nn23)N2CC(c3ccccn3)C2)cc1 (racemic) [Example 24, N-(2-(4-Fluorophenyl)-2-(3-(pyridin-2-yl)azetidin-1-yl)ethyl)-2,5-bis(trifluoromethyl)pyrazolo[1,5-a]pyrimidin-7-amine]
Cn1nc(N2CC(C(C)(CNc3cc(C(F)(F)F)nc4cc(C(F)(F)F)nn34)c3ccc(F)cc3)C2)ccc1=O (racemic) [Example 12, 6-(3-(1-((2,5-Bis(trifluoromethyl)pyrazolo[1,5-a]pyrimidin-7-yl)amino)-2-(4-fluorophenyl)propan-2-yl)azetidin-1-yl)-2-methylpyridazin-3(2H)-one]
NC(=O)N1CCC(C(CNc2cc(C(F)(F)F)nc3cc(C(F)(F)F)nn23)c2ccc(F)cc2)CC1 (racemic) [Example 15, 4-(2-((2,5-Bis(trifluoromethyl)pyrazolo[1,5-a]pyrimidin-7-yl)amino)-1-(4-fluorophenyl)ethyl)piperidine-1-carboxamide]
O=C(NCC(F)(F)F)N1CC2(C1)CN(C(CNc1cc(C(F)(F)F)nc3cc(C(F)(F)F)nn13)c1ccc(F)cc1)C2 (racemic) [Example 41, 6-(2-((2,5-Bis(trifluoromethyl)pyrazolo[1,5-a]pyrimidin-7-yl)amino)-1-(4-fluorophenyl)ethyl)-N-(2,2,2-trifluoroethyl)-2,6-diazaspiro[3.3]heptane-2-carboxamide]
CCC(CNc1cc(C(F)(F)F)nc2cc(C(F)(F)F)nn12)(c1ccc(F)cc1)C1CN(C(N)=O)C1 (racemic) [Example 1, 3-(1-((2,5-Bis(trifluoromethyl)pyrazolo[1,5-a]pyrimidin-7-yl)amino)-2-(4-fluorophenyl)butan-2-yl)azetidine-1-carboxamide]
CC(CNc1cc(C(F)(F)F)nc2cc(C(F)(F)F)nn12)(c1ccc(F)cc1)C1CCN(C(N)=O)C1 (single isomer, unassigned) [Example 4, 3-(1-((2,5-Bis(trifluoromethyl)pyrazolo[1,5-a]pyrimidin-7-yl)amino)-2-(4-fluorophenyl)propan-2-yl)pyrrolidine-1-carboxamide]
OC1CC2CC1CN2C(CNc1cc(C(F)(F)F)nc2cc(C(F)(F)F)nn12)c1ccc(F)cc1 (centres unmarked) [Example 22, 2-(2-((2,5-Bis(trifluoromethyl)pyrazolo[1,5-a]pyrimidin-7-yl)amino)-1-(4-fluorophenyl)ethyl)-2-azabicyclo[2.2.1]heptan-5-ol]
CC(CNc1cc(C(F)(F)F)nc2cc(C(F)(F)F)nn12)(c1ccc(F)cc1)C1CCN(C(N)=O)CC1 (racemic) [Example 2, 4-(1-((2,5-Bis(trifluoromethyl)pyrazolo[1,5-a]pyrimidin-7-yl)amino)-2-(4-fluorophenyl)propan-2-yl)piperidine-1-carboxamide]
NC(=O)N1CCC(C(CO)(CNc2cc(C(F)(F)F)nc3cc(C(F)(F)F)nn23)c2ccc(F)cc2)C1 (single isomer, unassigned) [Example 19, 3-(1-((2,5-Bis(trifluoromethyl)pyrazolo[1,5-a]pyrimidin-7-yl)amino)-2-(4-fluorophenyl)-3-hydroxypropan-2-yl)pyrrolidine-1-carboxamide]
[2H]C([2H])([2H])NC(=O)N1CC2(C1)CN(C(CNc1cc(C(F)(F)F)nc3cc(C(F)(F)F)nn13)c1ccc(F)cc1)C2 (racemic) [Example 40, 6-(2-((2,5-Bis(trifluoromethyl)pyrazolo[1,5-a]pyrimidin-7-yl)amino)-1-(4-fluorophenyl)ethyl)-N-(methyl-d3)-2,6-diazaspiro[3.3]heptane-2-carboxamide]
N#CC1(C(=O)N2CC3(C2)CN(C(CNc2cc(C(F)(F)F)nc4cc(C(F)(F)F)nn24)c2ccc(F)cc2)C3)CC1 (racemic) [Example 38, 1-(6-(2-((2,5-Bis(trifluoromethyl)pyrazolo[1,5-a]pyrimidin-7-yl)amino)-1-(4-fluorophenyl)ethyl)-2,6-diazaspiro[3.3]heptane-2-carbonyl)cyclopropane-1-carbonitrile]
CC(CNc1cc(C(F)(F)F)nc2cc(C(F)(F)F)nn12)(c1ccc(F)cc1)C1CCN(C(N)=O)C1 (single isomer, unassigned) [Example 3, 3-(1-((2,5-Bis(trifluoromethyl)pyrazolo[1,5-a]pyrimidin-7-yl)amino)-2-(4-fluorophenyl)propan-2-yl)pyrrolidine-1-carboxamide]
Cn1ccnc1NC1CN(C(CNc2cc(C(F)(F)F)nc3cc(C(F)(F)F)nn23)c2ccc(F)cc2)C1 (racemic) [Example 28, N-(2-(4-Fluorophenyl)-2-(3-((1-methyl-1H-imidazol-2-yl)amino)azetidin-1-yl)ethyl)-2,5-bis(trifluoromethyl)pyrazolo[1,5-a]pyrimidin-7-amine]
O=C(CO)N1CC2(C1)CN(C(CNc1cc(C(F)(F)F)nc3cc(C(F)(F)F)nn13)c1ccc(F)cc1)C2 (racemic) [Example 39, 1-(6-(2-((2,5-Bis(trifluoromethyl)pyrazolo[1,5-a]pyrimidin-7-yl)amino)-1-(4-fluorophenyl)ethyl)-2,6-diazaspiro[3.3]heptan-2-yl)-2-hydroxyethan-1-one]
O=C1CCC2(CN(C(CNc3cc(C(F)(F)F)nc4cc(C(F)(F)F)nn34)c3ccc(F)cc3)C2)N1 (racemic) [Example 32, 2-(2-((2,5-Bis(trifluoromethyl)pyrazolo[1,5-a]pyrimidin-7-yl)amino)-1-(4-fluorophenyl)ethyl)-2,5-diazaspiro[3.4]octan-6-one]
NC(=O)N1CC2(C1)CN(C(CNc1cc(C(F)(F)F)nc3cc(C(F)(F)F)nn13)c1ccc(F)cc1)C2 (single isomer, unassigned) [Example 29, 6-(2-((2,5-Bis(trifluoromethyl)pyrazolo[1,5-a]pyrimidin-7-yl)amino)-1-(4-fluorophenyl)ethyl)-2,6-diazaspiro[3.3]heptane-2-carboxamide]
NC(=O)N1CC(C(CO)(CNc2cc(C(F)(F)F)nc3cc(C(F)(F)F)nn23)c2ccc(F)cc2)C1 (racemic) [Example 21, 3-(1-((2,5-Bis(trifluoromethyl)pyrazolo[1,5-a]pyrimidin-7-yl)amino)-2-(4-fluorophenyl)-3-hydroxypropan-2-yl)azetidine-1-carboxamide]
O=C1NC2(CO1)CN(C(CNc1cc(C(F)(F)F)nc3cc(C(F)(F)F)nn13)c1ccc(F)cc1)C2 (racemic) [Example 42, 2-(2-((2,5-Bis(trifluoromethyl)pyrazolo[1,5-a]pyrimidin-7-yl)amino)-1-(4-fluorophenyl)ethyl)-7-oxa-2,5-diazaspiro[3.4]octan-6-one]
OC[C@H]1CCN(C(CNc2cc(C(F)(F)F)nc3cc(C(F)(F)F)nn23)c2ccc(F)cc2)C1 (mixture of isomers) [Example 31, ((3S)-1-(2-((2,5-Bis(trifluoromethyl)pyrazolo[1,5-a]pyrimidin-7-yl)amino)-1-(4-fluorophenyl)ethyl)pyrrolidin-3-yl)methanol]

Source: patent US20250243208A1, “BICYCLIC HETEROCYCLES AS MRGPRX2 ANTAGONISTS” (Incyte Corporation, priority 2024, published 2025)
